Active and inactive are the calls of the source. No cut-off for these calls is given here.
What was measured:
[1] = biological target: T1, Glucocorticoid receptor (Homo sapiens, UniProt P04150); experiment: Displacement of Dexamethasone from human glucocorticoid receptor by fluorescence polarization assay
T1 sequence (P04150 whole entry): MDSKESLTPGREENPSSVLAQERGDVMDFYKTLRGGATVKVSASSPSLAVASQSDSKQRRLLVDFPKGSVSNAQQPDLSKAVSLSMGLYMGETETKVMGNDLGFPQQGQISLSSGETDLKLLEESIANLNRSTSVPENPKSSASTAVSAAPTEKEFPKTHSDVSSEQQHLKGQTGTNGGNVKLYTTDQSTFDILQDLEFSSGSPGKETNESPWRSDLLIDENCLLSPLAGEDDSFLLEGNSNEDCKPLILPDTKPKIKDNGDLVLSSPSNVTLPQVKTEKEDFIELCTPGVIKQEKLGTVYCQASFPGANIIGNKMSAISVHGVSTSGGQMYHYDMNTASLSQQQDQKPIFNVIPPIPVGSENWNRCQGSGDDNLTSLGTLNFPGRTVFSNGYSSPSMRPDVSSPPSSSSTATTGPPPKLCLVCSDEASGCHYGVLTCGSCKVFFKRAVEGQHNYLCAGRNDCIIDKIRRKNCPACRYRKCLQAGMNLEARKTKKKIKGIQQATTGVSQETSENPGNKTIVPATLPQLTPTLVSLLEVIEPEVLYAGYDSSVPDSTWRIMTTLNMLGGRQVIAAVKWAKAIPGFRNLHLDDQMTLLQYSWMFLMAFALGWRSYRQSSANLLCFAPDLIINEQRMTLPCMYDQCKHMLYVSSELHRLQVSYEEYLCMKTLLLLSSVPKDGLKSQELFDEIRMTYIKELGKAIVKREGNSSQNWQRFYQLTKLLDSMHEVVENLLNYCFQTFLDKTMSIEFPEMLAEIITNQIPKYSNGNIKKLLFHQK

[2] = biological target: T2, Progesterone receptor (Homo sapiens, UniProt P06401); experiment: Displacement of RU486 from human progesterone receptor by fluorescence polarization assay
T2 sequence (P06401 whole entry): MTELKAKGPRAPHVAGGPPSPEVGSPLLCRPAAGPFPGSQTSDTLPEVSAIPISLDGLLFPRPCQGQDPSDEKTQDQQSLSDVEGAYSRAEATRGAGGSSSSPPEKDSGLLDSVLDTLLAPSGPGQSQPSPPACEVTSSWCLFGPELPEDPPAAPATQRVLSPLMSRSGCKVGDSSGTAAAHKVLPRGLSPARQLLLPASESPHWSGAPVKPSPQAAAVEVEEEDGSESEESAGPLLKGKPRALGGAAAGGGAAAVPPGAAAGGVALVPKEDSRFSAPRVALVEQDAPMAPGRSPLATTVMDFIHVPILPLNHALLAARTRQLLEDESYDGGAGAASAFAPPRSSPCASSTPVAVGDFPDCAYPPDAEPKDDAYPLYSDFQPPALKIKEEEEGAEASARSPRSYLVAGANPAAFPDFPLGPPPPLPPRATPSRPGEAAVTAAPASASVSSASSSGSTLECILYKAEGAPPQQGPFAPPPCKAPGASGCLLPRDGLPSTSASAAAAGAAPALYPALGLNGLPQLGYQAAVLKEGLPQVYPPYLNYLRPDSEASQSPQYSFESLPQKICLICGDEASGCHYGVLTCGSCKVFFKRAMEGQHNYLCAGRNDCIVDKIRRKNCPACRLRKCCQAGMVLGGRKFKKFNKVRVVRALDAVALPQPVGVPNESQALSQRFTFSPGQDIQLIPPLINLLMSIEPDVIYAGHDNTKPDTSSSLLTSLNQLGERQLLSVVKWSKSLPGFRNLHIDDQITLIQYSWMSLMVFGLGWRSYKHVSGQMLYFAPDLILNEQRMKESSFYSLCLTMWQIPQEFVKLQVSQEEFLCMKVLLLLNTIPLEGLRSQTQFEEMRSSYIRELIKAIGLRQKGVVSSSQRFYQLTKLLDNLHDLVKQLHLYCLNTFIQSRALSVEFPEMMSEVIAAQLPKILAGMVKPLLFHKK

[3] = system: Fibroblast; experiment: Inhibition of IL1-induced IL6 production in foreskin fibroblasts after 24 hrs; type: functional, cell-based
[4] = Metabolic stability in human liver microsomes; type: ADME, Microsome
[5] = biological target: T3, Estrogen receptor (Homo sapiens, UniProt P03372); experiment: Displacement of fluormone from human estrogen receptor by fluorescence binding assay
T3 sequence (P03372 whole entry): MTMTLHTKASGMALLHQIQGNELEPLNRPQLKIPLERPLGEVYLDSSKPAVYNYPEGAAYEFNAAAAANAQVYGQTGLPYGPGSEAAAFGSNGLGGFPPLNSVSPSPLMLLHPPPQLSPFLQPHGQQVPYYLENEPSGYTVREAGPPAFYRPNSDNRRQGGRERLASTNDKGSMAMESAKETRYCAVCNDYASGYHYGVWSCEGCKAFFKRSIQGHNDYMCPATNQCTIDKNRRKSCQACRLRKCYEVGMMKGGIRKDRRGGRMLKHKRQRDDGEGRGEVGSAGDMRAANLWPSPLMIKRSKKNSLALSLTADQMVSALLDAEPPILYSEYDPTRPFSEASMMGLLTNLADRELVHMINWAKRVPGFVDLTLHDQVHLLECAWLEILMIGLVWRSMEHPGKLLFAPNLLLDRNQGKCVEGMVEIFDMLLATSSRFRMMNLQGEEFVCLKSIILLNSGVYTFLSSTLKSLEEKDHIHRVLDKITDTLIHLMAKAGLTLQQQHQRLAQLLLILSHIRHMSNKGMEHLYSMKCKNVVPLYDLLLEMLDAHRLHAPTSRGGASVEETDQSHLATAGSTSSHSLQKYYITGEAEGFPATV

[6] = biological target: T4, Mineralocorticoid receptor (Homo sapiens, UniProt P08235); experiment: Displacement of Dexamethasone from human mineralocorticoid receptor by fluorescence polarization assay
T4 sequence (P08235 whole entry): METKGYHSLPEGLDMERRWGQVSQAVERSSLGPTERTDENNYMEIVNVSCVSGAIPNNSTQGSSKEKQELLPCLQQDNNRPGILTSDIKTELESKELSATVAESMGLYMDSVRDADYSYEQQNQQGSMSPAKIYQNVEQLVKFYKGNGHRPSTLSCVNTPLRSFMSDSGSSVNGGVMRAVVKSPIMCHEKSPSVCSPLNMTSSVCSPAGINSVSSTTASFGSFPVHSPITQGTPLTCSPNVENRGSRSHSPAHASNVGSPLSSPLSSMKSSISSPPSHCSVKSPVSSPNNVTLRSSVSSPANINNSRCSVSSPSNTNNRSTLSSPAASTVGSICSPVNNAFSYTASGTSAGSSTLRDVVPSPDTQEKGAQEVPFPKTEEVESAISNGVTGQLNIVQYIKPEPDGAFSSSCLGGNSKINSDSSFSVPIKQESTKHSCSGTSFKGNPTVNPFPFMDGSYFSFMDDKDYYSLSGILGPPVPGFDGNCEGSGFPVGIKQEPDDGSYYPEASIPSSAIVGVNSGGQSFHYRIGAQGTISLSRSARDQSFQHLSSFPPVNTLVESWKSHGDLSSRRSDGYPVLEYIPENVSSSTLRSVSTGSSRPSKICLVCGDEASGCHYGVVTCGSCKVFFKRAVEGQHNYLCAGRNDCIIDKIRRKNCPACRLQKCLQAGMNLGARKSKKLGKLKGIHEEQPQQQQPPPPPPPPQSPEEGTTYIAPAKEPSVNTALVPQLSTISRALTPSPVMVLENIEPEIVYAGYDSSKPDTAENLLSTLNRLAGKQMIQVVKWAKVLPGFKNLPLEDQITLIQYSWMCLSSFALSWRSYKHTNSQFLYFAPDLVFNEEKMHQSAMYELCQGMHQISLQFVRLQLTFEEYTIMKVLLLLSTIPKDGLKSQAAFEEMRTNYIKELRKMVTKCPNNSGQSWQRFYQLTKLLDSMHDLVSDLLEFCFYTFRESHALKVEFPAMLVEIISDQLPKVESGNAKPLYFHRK

[7] = system: Fibroblast; experiment: Inhibition of IL1-induced IL6 production in foreskin fibroblasts at 2000 nM after 24 hrs relative to Dexamethasone; type: functional, Homo sapiens

IC50 [1] | IC50 [2] | Structure (SMILES) | also measured
400 nM | > 2000 nM | COc1ccccc1-c1ccc2c(c1)C(C(C)OCCC1CCCCC1)=CC(C)(C)N2 (stereo not drawn) | –
> 2000 nM | > 2000 nM | C=CC[S+]([O-])CC1=CC(C)(C)Nc2ccc(-c3ccccc3OC)cc21 (stereo not drawn) | –
395 nM | 980 nM | COc1ccccc1-c1ccc2c(c1)C(C(C)OCC=C(C)C)=CC(C)(C)N2 (stereo not drawn) | –
> 2000 nM | 1200 nM | C=CCOC(Cc1ccccc1)C1=CC(C)(C)Nc2ccc(-c3ccccc3OC)cc21 (stereo not drawn) | –
1060 nM | 540 nM | COc1ccccc1-c1ccc2c(c1)C(C(C)OC)=CC(C)(C)N2 (stereo not drawn) | –
185 nM | 930 nM | COc1ccccc1-c1ccc2c(c1)C(C(C)OCCc1ccc(Cl)cc1)=CC(C)(C)N2 (stereo not drawn) | –
> 2000 nM | 1000 nM | C=CCOC(CCc1ccccc1)C1=CC(C)(C)Nc2ccc(-c3ccccc3OC)cc21 (stereo not drawn) | –
– | – | C=CCSCC1=CC(C)(C)Nc2ccc(-c3cc(F)ccc3OC)cc21 | Activity ([3]; Homo sapiens): inactive; half-life [4]: 12 min; IC50 [5]: > 2000 nM; IC50 [6]: > 2000 nM
355 nM | 330 nM | C=CCOC(CC)C1=CC(C)(C)Nc2ccc(-c3ccccc3OC)cc21 (stereo not drawn) | –
565 nM | 1600 nM | CC/C=C/COC(C)C1=CC(C)(C)Nc2ccc(-c3ccccc3OC)cc21 (stereo not drawn) | –
210 nM | 1300 nM | C/C=C/COC(C)C1=CC(C)(C)Nc2ccc(-c3ccccc3OC)cc21 (stereo not drawn) | –
195 nM | 1300 nM | COc1ccc(F)cc1-c1ccc2c(c1)C(C(C)OCCc1ccccc1)=CC(C)(C)N2 (stereo not drawn) | –
275 nM | 1900 nM | COc1ccccc1-c1ccc2c(c1)C(C(C)OCCc1cccc(Cl)c1)=CC(C)(C)N2 (stereo not drawn) | –
– | – | COc1ccc(F)cc1-c1ccc2c(c1)C(CSCCc1ccccc1)=CC(C)(C)N2 | Activity ([3]; Homo sapiens): inactive; half-life [4]: 17 min; IC50 [5]: > 2000 nM
404 nM | > 2000 nM | COc1ccccc1-c1ccc2c(c1)C(C(C)OCCc1ccccc1)=CC(C)(C)N2 (stereo not drawn) | –
290 nM | > 2000 nM | COc1ccccc1-c1ccc2c(c1)C(C(C)OCCc1ccccc1Cl)=CC(C)(C)N2 (stereo not drawn) | –
> 2000 nM | > 2000 nM | C=CCOC(C1=CC(C)(C)Nc2ccc(-c3ccccc3OC)cc21)c1ccccc1 (stereo not drawn) | –
> 2000 nM | 440 nM | C=CCOC(CC=C)C1=CC(C)(C)Nc2ccc(-c3ccccc3OC)cc21 (stereo not drawn) | –
116 nM | 600 nM | C=CCSC(C)C1=CC(C)(C)Nc2ccc(-c3ccccc3OC)cc21 (stereo not drawn) | –
> 2000 nM | > 2000 nM | C=CCOC(CCC)C1=CC(C)(C)Nc2ccc(-c3ccccc3OC)cc21 (stereo not drawn) | –
710 nM | 950 nM | C=CCOC(C1=CC(C)(C)Nc2ccc(-c3ccccc3OC)cc21)C(C)C (stereo not drawn) | –

Structure (SMILES) | IC50 [1] | IC50 [2] | also measured
COc1ccccc1-c1ccc2c(c1)C(C(C)OC/C=C/c1ccccc1)=CC(C)(C)N2 (stereo not drawn) | 980 nM | > 2000 nM | –
C=CCOC(C)C1=CC(C)(C)Nc2ccc(-c3cc(F)ccc3OC)cc21 (racemic) | 34 nM | 451 nM | half-life [4]: 6 min; IC50 [6]: 970 nM
C=CCOC(C)C1=CC(C)(C)Nc2ccc(-c3cc(F)ccc3OC)cc21.Cl (single isomer, unassigned; (-)) | 110 nM | 620 nM | IC50 ([3]; Homo sapiens, Fibroblast, 24 h): 260 nM; half-life [4]: 5 min; Inhibition [7]: 46%; IC50 [6]: > 2000 nM
Br.C=CCOC(C)C1=CC(C)(C)Nc2ccc(-c3cc(F)ccc3OC)cc21 (single isomer, unassigned; (+)) | 40 nM | 170 nM | IC50 ([3]; fibroblast): 170 nM; half-life [4]: 6 min; inhibition at 2 µM ([7]; Homo sapiens, Fibroblast, 24 h): 28%; IC50 [5]: > 2000 nM; IC50 [6]: 1100 nM
COc1ccccc1-c1ccc2c(c1)C(C(C)OCCCc1ccccc1)=CC(C)(C)N2 (stereo not drawn) | 260 nM | > 2000 nM | –
C=CCOC(C)C1=CC(C)(C)Nc2ccc(-c3ccccc3OC)cc21 (stereo not drawn) | 116 nM | 480 nM | –

— ChEMBL document CHEMBL1146252, “Discovery and SAR study of novel dihydroquinoline-containing glucocorticoid receptor agonists” (Bioorg Med Chem Lett, 2007)
